Data reported in ChEMBL document CHEMBL1141079, “Cytostatic 6-arylpurine nucleosides. 6. SAR in anti-HCV and cytostatic activity of extended series of 6-hetarylpurine ribonucleosides” (J Med Chem, 2005).

Tests used:
Homo sapiens = organism: Homo sapiens; assay: Cytotoxic concentration required to reduce the cellular rRNA level in hepatitis C virus replicon cells
Hepatitis C virus = assay: Effective concentration required to reduce Hepatitis C virus; type: functional, Hepacivirus hominis
HL-60 [1] = assay: In vitro inhibitory concentration against human promyelocytic leukemia HL60 cell line; type: functional, cell-based
CCRF-CEM = assay: In vitro inhibitory concentration against human T lymphoblastoid CCRF-CEM cell line; type: functional, cell-based
HeLa [2] = assay: In vitro inhibitory concentration against human cervix carcinoma HeLaS3 cell line; type: functional, cell-based
L1210 [3] = assay: In vitro inhibitory concentration against mouse leukemia L1210 cell line; type: functional, cell-based
HeLa [4] = assay: In vitro inhibitory concentration against human cervix carcinoma HeLaS3 cell line; n.a. is not active; type: functional, cell-based
HL-60 [5] = assay: In vitro inhibitory concentration against human promyelocytic leukemia HL60 cell line; n.a. is not active; type: functional, cell-based
L1210 [6] = assay: In vitro inhibitory concentration against mouse leukemia L1210 cell line; n.a. is not active; type: functional, cell-based
[7] = Homo sapiens, CCRF-CEM, read-out: IC50

Structure (SMILES)	CC50 (Homo sapiens)	EC90 (Hepatitis C virus)	IC50 (HL-60 [1])	IC50 (CCRF-CEM; [7])	IC50 (HeLa [2])	IC50 (L1210 [3])	IC50 (HeLa [4])	IC50 (HL-60 [5])	IC50 (CCRF-CEM; ccrf-cem)	IC50 (L1210 [6])
OC[C@H]1O[C@@H](n2cnc3c(-c4ccccc4)ncnc32)[C@H](O)[C@@H]1O	8.3 µM	16.7 µM	6.3 µM							
OC[C@H]1O[C@@H](n2cnc3c(-c4cccs4)ncnc32)[C@H](O)[C@@H]1O	1.1 µM	0.7 µM	4.9 µM	0.6 µM	25 µM	0.37 µM				
COc1ccc(-c2ncnc3c2ncn3C2O[C@H](CO)[C@@H](O)[C@H]2O)cc1 (stereo partly drawn)	< 10 µM	> 100 µM	7.6 µM							
OC[C@H]1OC(n2cnc3c(-c4ccco4)ncnc32)[C@H](O)[C@@H]1O (stereo partly drawn)	1.6 µM	0.4 µM	2.7 µM	0.6 µM	25 µM	2 µM				
OC[C@H]1OC(n2cnc3c(-c4ccc(O)cc4)ncnc32)[C@H](O)[C@@H]1O (stereo partly drawn)	5.2 µM	2.6 µM	7.6 µM	1.25 µM	32.5 µM	5 µM				
OC[C@H]1OC(n2cnc3c(-c4cc[nH]c4)ncnc32)[C@H](O)[C@@H]1O (stereo partly drawn)	< 0.1 µM	0.14 µM	3.2 µM	1.03 µM		17.5 µM	Not Active			
OC[C@H]1OC(n2cnc3c(-c4cc[nH]n4)ncnc32)[C@H](O)[C@@H]1O (stereo partly drawn)	0.6 µM	0.8 µM	1.17 µM	0.75 µM		19.8 µM	Not Active			
Cc1cc(-c2ncnc3c2ncn3C2O[C@H](CO)[C@@H](O)[C@H]2O)on1 (stereo partly drawn)	> 100 µM	> 100 µM					Not Active	Not Active	Not Active	Not Active
Cn1nccc1-c1ncnc2c1ncn2C1O[C@H](CO)[C@@H](O)[C@H]1O (stereo partly drawn)	> 100 µM	> 100 µM					Not Active	Not Active	Not Active	Not Active
Cc1csc(-c2ncnc3c2ncn3C2O[C@H](CO)[C@@H](O)[C@H]2O)n1 (stereo partly drawn)	> 100 µM	> 100 µM		6 µM			Not Active	Not Active		Not Active
OC[C@H]1OC(n2cnc3c(-c4cc5ccccc5o4)ncnc32)[C@H](O)[C@@H]1O (stereo partly drawn)	> 100 µM	> 100 µM		15 µM			Not Active	Not Active		Not Active
OC[C@H]1OC(n2cnc3c(-c4nccs4)ncnc32)[C@H](O)[C@@H]1O (stereo partly drawn)	6.7 µM	6 µM	6.3 µM	2.73 µM		16 µM	Not Active			
Cc1csc(-c2ncnc3c2ncn3C2O[C@H](CO)[C@@H](O)[C@H]2O)c1 (stereo partly drawn)	7 µM	40.7 µM	5.6 µM	2.9 µM	11.4 µM					Not Active
OC[C@H]1OC(n2cnc3c(-c4ccc(F)cc4)ncnc32)[C@H](O)[C@@H]1O (stereo partly drawn)	9.2 µM	49.5 µM	6.3 µM	0.7 µM	2.7 µM					
Cc1ccsc1-c1ncnc2c1ncn2C1O[C@H](CO)[C@@H](O)[C@H]1O (stereo partly drawn)	> 100 µM	> 100 µM	4.5 µM	2.5 µM	> 20 µM					Not Active
Cn1cccc1-c1ncnc2c1ncn2C1O[C@H](CO)[C@@H](O)[C@H]1O (stereo partly drawn)	> 100 µM	> 100 µM	15.7 µM	2 µM			Not Active			Not Active
OC[C@H]1OC(n2cnc3c(-c4ccccn4)ncnc32)[C@H](O)[C@@H]1O (stereo partly drawn)	2.7 µM	6 µM	5.6 µM	0.9 µM	9.7 µM	4.3 µM				
OC[C@H]1OC(n2cnc3c(-c4ccsc4)ncnc32)[C@H](O)[C@@H]1O (stereo partly drawn)	< 0.1 µM	0.82 µM	3.8 µM	1.64 µM		10.8 µM	Not Active			
OC[C@H]1OC(n2cnc3c(-c4ccoc4)ncnc32)[C@H](O)[C@@H]1O (stereo partly drawn)	6.9 µM	1.4 µM	3.3 µM	1.65 µM			Not Active			Not Active
OC[C@H]1OC(n2cnc3c(-c4ccc(Cl)cc4)ncnc32)[C@H](O)[C@@H]1O (stereo partly drawn)	> 100 µM	> 100 µM						Not Active		Not Active
C[C@@]1(O)[C@H](O)[C@@H](CO)O[C@H]1n1cnc2c(N)ncnc21	15 µM	1.14 µM								
